Experimental data taken from patent publication US10738056B2 (Aduro BioTech, Inc., priority 2017, dated 2020).

These compounds were tested against Human cGAS amino acids 155-522 (Homo sapiens (Human), UniProt Q8N884) (assay: cGAS biochemical activity assay (ATP remaining, Kinase-Glo Max luminescence)). Settings: human cGAS 155-522, ATP remaining (Kinase-Glo Max); read-out: cGAS IC50.
Human cGAS amino acids 155-522, sequence (Q8N884 157-522): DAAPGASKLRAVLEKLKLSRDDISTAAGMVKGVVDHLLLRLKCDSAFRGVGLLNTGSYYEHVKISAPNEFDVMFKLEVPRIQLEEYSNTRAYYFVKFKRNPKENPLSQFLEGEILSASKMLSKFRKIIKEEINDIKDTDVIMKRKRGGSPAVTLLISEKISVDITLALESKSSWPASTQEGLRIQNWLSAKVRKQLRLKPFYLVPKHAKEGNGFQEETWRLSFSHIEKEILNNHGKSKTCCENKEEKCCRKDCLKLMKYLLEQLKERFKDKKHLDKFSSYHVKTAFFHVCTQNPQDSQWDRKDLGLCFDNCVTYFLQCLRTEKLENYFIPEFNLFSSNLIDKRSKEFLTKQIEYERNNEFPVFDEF

| IC50 [µM] | SMILES |
| --- | --- |
| 20 to 250 | Cc1[nH]c2c(-c3ccccc3)c(C(F)(F)F)nn2c(=O)c1CC(=O)Nc1cccnc1 [Compound B1008, 2-(5-methyl-7-oxo-3-phenyl-2-(trifluoromethyl)-4,7-dihydropyrazolo[1,5-a]pyrimidin-6-yl)-N-(pyridin-3-yl)acetamide] |
| 20 to 250 | CC(=O)NCCc1c(C)[nH]c2c(-c3ccccc3)c(C(F)(F)F)nn2c1=O [Compound B1013, N-(2-(5-methyl-7-oxo-3-phenyl-2-(trifluoromethyl)-4,7-dihydropyrazolo[1,5-a]pyrimidin-6-yl)ethyl)acetamide] |
| 20 to 250 | Cc1[nH]c2c(-c3ccccc3)c(C(F)(F)F)nn2c(=O)c1CCNC(=O)c1ccccc1 [Compound B1014, N-(2-(5-methyl-7-oxo-3-phenyl-2-(trifluoromethyl)-4,7-dihydropyrazolo[1,5-a]pyrimidin-6-yl)ethyl)benzamide] |
| < 20 | COc1cccc(NCCc2c(C)[nH]c3c(-c4ccccc4)c(C(F)(F)F)nn3c2=O)c1 [Compound B1015, 6-(2-((3-methoxyphenyl)amino)ethyl)-5-methyl-3-phenyl-2-(trifluoromethyl)pyrazolo[1,5-a]pyrimidin-7(4H)-one] |
| 20 to 250 | Cc1[nH]c2c(-c3ccccc3)c(C(F)(F)F)nn2c(=O)c1-c1ccncc1 [Compound C1001, 5-methyl-3-phenyl-6-(pyridin-4-yl)-2-(trifluoromethyl)pyrazolo[1,5-a]pyrimidin-7(4H)-one] |
| 20 to 250 | Cc1cccc(-c2c(C)[nH]c3c(-c4ccccc4)c(C(F)(F)F)nn3c2=O)c1 [Compound C1002, 5-methyl-3-phenyl-6-(m-tolyl)-2-(trifluoromethyl)pyrazolo[1,5-a]pyrimidin-7(4H)-one] |
| 20 to 250 | Cc1[nH]c2c(-c3ccccc3)c(C(F)(F)F)nn2c(=O)c1-c1cccnc1 [Compound C1003, 5-methyl-3-phenyl-6-(pyridin-3-yl)-2-(trifluoromethyl)pyrazolo[1,5-a]pyrimidin-7(4H)-one] |
| 20 to 250 | Cc1[nH]c2c(-c3ccccc3)c(C(F)(F)F)nn2c(=O)c1-c1cccc(Cl)c1 [Compound C1004, 6-(3-chlorophenyl)-5-methyl-3-phenyl-2-(trifluoromethyl)pyrazolo[1,5-a]pyrimidin-7(4H)-one] |
| > 250 | Cc1[nH]c2c(-c3ccccc3)c(C(F)(F)F)nn2c(=O)c1-c1ccc2nccn2c1 [Compound C1006, 6-(imidazo[1,2-a]pyridin-6-yl)-5-methyl-3-phenyl-2-(trifluoromethyl)pyrazolo[1,5-a]pyrimidin-7(4H)-one] |
| 20 to 250 | Cc1[nH]c2c(-c3ccccc3)c(C(F)(F)F)nn2c(=O)c1-c1cnc2ccccc2c1 [Compound C1007, 5-methyl-3-phenyl-6-(quinolin-3-yl)-2-(trifluoromethyl)pyrazolo[1,5-a]pyrimidin-7(4H)-one] |
| 20 to 250 | Cc1nc(-c2c(C)[nH]c3c(-c4ccccc4)c(C(F)(F)F)nn3c2=O)[nH]c1C [Compound C1021, 6-(4,5-dimethyl-1H-imidazol-2-yl)-5-methyl-3-phenyl-2-(trifluoromethyl)pyrazolo[1,5-a]pyrimidin-7(4H)-one] |
| > 250 | Cc1[nH]c2c(-c3ccccc3)c(C(F)(F)F)nn2c(=O)c1-c1nc2cc(Cl)ccc2o1 [Compound C1028, 6-(5-chlorobenzo[d]oxazol-2-yl)-5-methyl-3-phenyl-2-(trifluoromethyl)pyrazolo[1,5-a]pyrimidin-7(4H)-one] |
| > 250 | Cc1cccc(-c2c(C(F)(F)F)nn3c(=O)c(-c4nc5c(o4)CCCC5)c(C)[nH]c23)c1 [Compound C1034, 5-methyl-6-(4,5,6,7-tetrahydrobenzo[d]oxazol-2-yl)-3-(m-tolyl)-2-(trifluoromethyl)pyrazolo[1,5-a]pyrimidin-7(4H)-one] |
| > 250 | Cc1[nH]c2c(-c3cccc(F)c3)c(C(F)(F)F)nn2c(=O)c1-c1nc2c(o1)CCCC2 [Compound C1035, 3-(3-fluorophenyl)-5-methyl-6-(4,5,6,7-tetrahydrobenzo[d]oxazol-2-yl)-2-(trifluoromethyl)pyrazolo[1,5-a]pyrimidin-7(4H)-one] |
| > 250 | Cc1[nH]c2c(-c3cccnc3)c(C(F)(F)F)nn2c(=O)c1-c1nc2c(o1)CCCC2 [Compound C1036, 5-methyl-3-(pyridin-3-yl)-6-(4,5,6,7-tetrahydrobenzo[d]oxazol-2-yl)-2-(trifluoromethyl)pyrazolo[1,5-a]pyrimidin-7(4H)-one] |
| > 250 | COc1cccc2oc(-c3c(C)[nH]c4c(-c5ccccc5)c(C(=O)O)nn4c3=O)nc12 [Compound C1043, 6-(4-methoxybenzo[d]oxazol-2-yl)-5-methyl-7-oxo-3-phenyl-4,7-dihydropyrazolo[1,5-a]pyrimidine-2-carboxylic acid] |

| IC50 [µM] | SMILES |
| --- | --- |
| < 20 | COc1cccn2cc(-c3c(C)[nH]c4c(-c5ccccc5)c(C(F)(F)F)nn4c3=O)nc12 [Compound C1044, 6-(8-methoxyimidazo[1,2-a]pyridin-2-yl)-5-methyl-3-phenyl-2-(trifluoromethyl)pyrazolo[1,5-a]pyrimidin-7(4H)-one] |
| 20 to 250 | COc1cccc2oc(-c3c(C)[nH]c4c(-c5ccccc5)c(=O)[nH]n4c3=O)nc12 [Compound C1049, 6-(4-methoxybenzo[d]oxazol-2-yl)-5-methyl-3-phenylpyrazolo[1,5-a]pyrimidine-2,7(1H,4H)-dione] |
| > 250 | COc1cccc2oc(-c3c(C)[nH]c4c(-c5ccccc5)c(N)nn4c3=O)nc12 [Compound C1063, 2-amino-6-(4-methoxybenzo[d]oxazol-2-yl)-5-methyl-3-phenylpyrazolo[1,5-a]pyrimidin-7(4H)-one] |
| > 250 | COc1cccc2oc(-c3c(OCCN(C)C)[nH]c4c(-c5ccccc5)c(C(F)(F)F)nn4c3=O)nc12 [Compound C1067, 5-(2-(dimethylamino)ethoxy)-6-(4-methoxybenzo[d]oxazol-2-yl)-3-phenyl-2-(trifluoromethyl)pyrazolo[1,5-a]pyrimidin-7(4H)-one] |
| 20 to 250 | COc1cccc2oc(-c3c(C)[nH]c4c(-c5ccccc5)c(S(C)(=O)=O)nn4c3=O)nc12 [Compound C1068, 6-(4-methoxybenzo[d]oxazol-2-yl)-5-methyl-2-(methylsulfonyl)-3-phenylpyrazolo[1,5-a]pyrimidin-7(4H)-one] |
| 20 to 250 | COc1cccc2oc(-c3c(C)[nH]c4c(-c5ccccc5)c(OCC(=O)O)nn4c3=O)nc12 [Compound C1072, 2-((6-(4-methoxybenzo[d]oxazol-2-yl)-5-methyl-7-oxo-3-phenyl-4,7-dihydropyrazolo[1,5-a]pyrimidin-2-yl)oxy)acetic acid] |
| 20 to 250 | COc1cccc2oc(-c3c(C)[nH]c4c(-c5ccccc5)c(OC5CCOCC5)nn4c3=O)nc12 [Compound C1080, 6-(4-methoxybenzo[d]oxazol-2-yl)-5-methyl-3-phenyl-2-((tetrahydro-2H-pyran-4-yl)oxy)pyrazolo[1,5-a]pyrimidin-7(4H)-one] |
| > 250 | COCCOc1nn2c(=O)c(-c3nc4c(OC)cccc4o3)c(C)[nH]c2c1-c1ccccc1 [Compound C1083, 6-(4-methoxybenzo[d]oxazol-2-yl)-2-(2-methoxyethoxy)-5-methyl-3-phenylpyrazolo[1,5-a]pyrimidin-7(4H)-one] |
| > 250 | COc1ccccc1-c1c(C(F)(F)F)nn2c(=O)c(-c3nc4c(OC)cccc4o3)c(C)[nH]c12 [Compound C1086, 6-(4-methoxybenzo[d]oxazol-2-yl)-3-(2-methoxyphenyl)-5-methyl-2-(trifluoromethyl)pyrazolo[1,5-a]pyrimidin-7(4H)-one] |
| 20 to 250 | COc1cccc2c1nc(-c1c(C)[nH]c3c(-c4ccccc4)c(C(F)(F)F)nn3c1=O)n2C [Compound C1087, 6-(4-methoxy-1-methyl-1H-benzo[d]imidazol-2-yl)-5-methyl-3-phenyl-2-(trifluoromethyl)pyrazolo[1,5-a]pyrimidin-7(4H)-one] |
| 20 to 250 | COCc1[nH]c2c(-c3ccccc3)c(C(=O)O)nn2c(=O)c1-c1nc2c(OC)cccc2o1 [Compound C1090, 6-(4-methoxybenzo[d]oxazol-2-yl)-5-(methoxymethyl)-7-oxo-3-phenyl-4,7-dihydropyrazolo[1,5-a]pyrimidine-2-carboxylic acid] |
| 20 to 250 | Cc1[nH]c2c(-c3ccccc3)c(C(F)(F)F)nn2c(=O)c1-c1nc(C(N)=O)co1 [Compound C1102, 2-(5-methyl-7-oxo-3-phenyl-2-(trifluoromethyl)-4,7-dihydropyrazolo[1,5-a]pyrimidin-6-yl)oxazole-4-carboxamide] |
| 20 to 250 | COc1cccn2nc(-c3c(C)[nH]c4c(-c5ccccc5)c(C(F)(F)F)nn4c3=O)nc12 [Compound C1110, 6-(8-methoxy-[1,2,4]triazolo[1,5-a]pyridin-2-yl)-5-methyl-3-phenyl-2-(trifluoromethyl)pyrazolo[1,5-a]pyrimidin-7(4H)-one] |
| 20 to 250 | COc1ccc(-c2c(C(F)(F)F)nn3c(=O)c(-c4nc5c(OC)cccc5o4)c(C)[nH]c23)cc1 [Compound C1115, 6-(4-methoxybenzo[d]oxazol-2-yl)-3-(4-methoxyphenyl)-5-methyl-2-(trifluoromethyl)pyrazolo[1,5-a]pyrimidin-7(4H)-one] |
| 20 to 250 | COc1cccc(-c2c(C(F)(F)F)nn3c(=O)c(-c4nc5c(OC)cccc5o4)c(C)[nH]c23)c1 [Compound C1120, 6-(4-methoxybenzo[d]oxazol-2-yl)-3-(3-methoxyphenyl)-5-methyl-2-(trifluoromethyl)pyrazolo[1,5-a]pyrimidin-7(4H)-one] |
| 20 to 250 | COc1cccc2oc(-c3c(C)[nH]c4c(-c5ccccn5)c(C(F)(F)F)nn4c3=O)nc12 [Compound C1127, 6-(4-methoxybenzo[d]oxazol-2-yl)-5-methyl-3-(pyridin-2-yl)-2-(trifluoromethyl)pyrazolo[1,5-a]pyrimidin-7(4H)-one] |

| SMILES | IC50 [µM] |
| --- | --- |
| Cc1ccc(CN2CCN(C(=O)Cc3c(C)[nH]c4c(-c5ccccc5)c(C(F)(F)F)nn4c3=O)CC2)cc1 [Compound B1009, 5-methyl-6-(2-(4-(4-methylbenzyl)piperazin-1-yl)-2-oxoethyl)-3-phenyl-2-(trifluoromethyl)pyrazolo[1,5-a]pyrimidin-7(4H)-one] | > 250 |
